How the values were obtained:
[1] = tested on: K1 cells xenograft tumors; experiment: Xenograft tumorigenicity assay; assay type: in vivo; details: K1 xenograft in nude mice
Description: FIG. 1A-1G. Cooperative role of BRAF V600E and TERT in the oncogenic behavior and tumor growth of cancer cells. Specific shRNA against BRAF and siRNA against TERT were used to knock down BRAF and TERT in the indicated cancer cells, respectively, followed by performance of assays of MTT of cell proliferation (FIG. 1A), transwell cell migration (FIG. 1B), cell invasion (FIG. 1C), and colony formation in soft agar (FIG. 1D) (with representative images shown in the left panel and the average colony numbers in the right panel). Western blotting analysis of TERT and phosphorylation of ERK (p-ERK) was performed for K1 cells (FIG. 1E), from which xenograft tumors were derived to test the role of TERT and BRAF V600E in tumor development and growth (FIG. 1F, FIG. 1G). […] The “Control” in FIG. 1A-1D represented the combination of scramble shRNA and Control siRNA. […] The red horizontal bar on the left of FIG. 1D represents 100 μm; colonies larger than this size were counted and colony numbers are shown on the right of the panel. […]
All animal experiments were approved and performed according to the guidelines of the Institutional Animal Care and Use Committee (IACUC) of Johns Hopkins University. […] Tumor size was measured twice a week on the skin surface of the animal using a caliper and tumor volume was calculated using the formula (width^2×length)/2 as previously described. […]

TERT promoter = TERT promoter luciferase reporter assay in K1 cells; assay type: cell-based, human; details: K1 cells harboring BRAF V600E; PLX4032 0.5 uM
Method: FIG. 2A-2G. BRAF V600E/MAPK pathway regulated TERT expression. (FIG. 2A) TERT expression was analyzed by qRT-PCR in cells treated with 0.5 uM PLX4032 or 0.2 uM AZD6244 for 24 hours (upper panel). The corresponding levels of phosphorylated ERK (p-ERK), total ERK (t-ERK), and beta-actin were detected by Western blotting (lower panel). The relative TERT mRNA expression levels were normalized to the DMSO control group. (FIG. 2B) Luciferase reporting assay of TERT promoter activities in K1 cells treated with DMSO or PLX4032 (0.5 uM). (FIG. 2C, 2D) Specific shRNA against BRAF were used to knock down BRAF in thyroid cancer cell lines BCPAP and K1 and melanoma cell line A375. Scramble shRNA was used as control. Cells were then subjected to Western blotting (FIG. 2C) and qRT-PCR (FIG. 2D). […]
For promoter activity assay, cells were seeded in triplicate into a 24-well plate and then transfected with 300 ng pGL3 plasmids containing the TERT, GAPBA, or GABPB promoter, together with 12 ng Renilla luciferase (pRL-TK) plasmid (normalizing control) using Lipofectamine 3000 (Invitrogen). At 24 hours after the transfection, cells were lysed and luciferase activities were measured using the Dual-Luciferase Reporter Assay System (Promega). Results were presented as relative luciferase activities, which were obtained by dividing firefly luciferase values with Renilla luciferase values for each set of reading.

## CCCS(=O)(=O)Nc1ccc(F)c(C(=O)c2c[nH]c3ncc(-c4ccc(Cl)cc4)cc23)c1F [PLX4032]
[1]; 10 mg/kg PLX4032 daily by oral gavage
  tumor growth: inhibited tumor growth
[1]; PLX4032 10 mg/kg daily combined with stable TERT knockdown (shTERT)
  tumor growth: nearly completely abolished tumor growth
TERT promoter
  activities of the mutated TERT promoter (C228T or C250T): dramatically reduced
  activity of the wild-type TERT promoter: limited effect
